These results are taken from patent publication US4264598A (priority 1980, dated 1981).

For one assay, the system named is Phytophthora infestans. The format is in vivo, Phytophthora infestans (host: tomato, cultivar Bonny Best). Particulars: 250 ppm spray; inoculated one day later; approximately 7 days in greenhouse; relative to untreated check plants.
The test system of the next assay is Uronyces phaseoli tipica. As to the kind of experiment: Leaf rust, % disease control. The format is in vivo, Uronyces phaseoli tipica (host: pinto beans). The conditions noted are these: 250 ppm spray; inoculated thereafter; rated after about 14 days; relative to untreated check plants. As for the experimental part: The leaf-rust was made using pinto beans. The pathogen was Uronyces phaseoli tipica. The pinto-bean plants were sprayed with a 250-ppm solution of the test compound in an acetone-water mixture containing a nonionic emulsifier. The treated plants were inoculated thereafter with the pathogen and then incubated in an environmental chamber for approximately 20 hours at 100% relative humidity and a temperature of 68°-70° F. The plants were then removed from the chamber, allowed to dry, and then maintained in a greenhouse at a 60-80% relative humidity. The rate of infection on the leaves was made after about 14 days. The percent disease control provided by a given test compound was based on the disease reduction relative to untreated check plants.

The subject of a further assay is Erysiphe polygoni. As to the kind of experiment: Powdery mildew, % disease control. Particulars: 250 ppm spray; inoculated one day later; rated after about 10 days; relative to untreated check plants. The format is in vivo, Erysiphe polygoni (host: bean seedlings, var. Bountiful). As for the experimental part: The powdery mildew test was made using bean seedlings (var. Bountiful) with well-developed primary leaves. The pathogen was Erysiphe polygoni. The bean seedlings were sprayed with a 250-ppm solution of the test compound in an acetone-water mixture containing a nonionic emulsifier. The treated plants were inoculated one day after spray application of the test compound with the pathogen. The plants were then maintained in a greenhouse at a 60-80% relative humidity and at a temperature of 68°-70° F. The rate of infection on the leaves was made after about 10 days. The percent disease control provided by a given test compound was based on the disease reduction relative to untreated check plants.

For another assay, the system named is Septoria apii. Format: in vivo, Septoria apii (host: celery, Utah). The conditions noted are these: 250 ppm (Table I default); approximately 48 hours incubation then approximately 14 days; relative to untreated check plants.
Assay [1] relates to Alternaria solani conidia. Kind of assay: Tomato early blight, % disease control. The format is in vivo, Alternaria solani (host: tomato, variety Bonny Best). Particulars: 250 ppm spray; inoculated one day later; about 12 days; relative to untreated check plants. As for the experimental part: Compounds of the invention were tested for the control of the Tomato Early Blight organism, Alternaria solani conidia. Tomato (variety Bonny Best) seedlings of 6 to 7 weeks old were used. The tomato plants were sprayed with a 250-ppm solution of the test compound in an acetone-and-water solution containing a small amount of a nonionic emulsifier. The sprayed plants were inoculated one day later with the organism, dried and maintained at 60-80% relative humidity for about 12 days. Percent disease control was based on the percent disease development on untreated check plants.

For `C#CC(C)(C)N1CN(C(C)(C)C#C)CN(C(C)(C)C#C)C1` [Compound 2, 1,3,5-(1',1'-dimethyl-propargyl)-hexahydro-1,3,5-triazine], the “Fungicidal efficacy, % control, TLB” value with Phytophthora infestans was 0%. For the same molecule, the “Fungicidal efficacy, % control, LR” value with Uronyces phaseoli tipica was 0%. Moreover, the “Fungicidal efficacy, % control, PM” value in the assay with Erysiphe polygoni amounted to 0%. Also, in the assay with Septoria apii, the “Fungicidal efficacy, % control, CLB” value was 27%. Further, the “Fungicidal efficacy, % control, TEB” value in assay [1] is reported as 0%.
Consider `C#CC1(N2CN(C3(C#C)CCCCC3)CN(C3(C#C)CCCCC3)C2)CCCCC1` [Compound 1, 1,3,5-TRI(1'-ETHYNYLCYCLOHEXYL)-HEXAHYDRO-1,3,5-TRIAZINE], for which the “Fungicidal efficacy, % control, TLB” value in the assay on Phytophthora infestans amounted to 100%. The “Fungicidal efficacy, % control, LR” value in the assay on Uronyces phaseoli tipica is 0%. Further, the “Fungicidal efficacy, % control, PM” value in the assay on Erysiphe polygoni is given as 37%. The “Fungicidal efficacy, % control, CLB” value in the assay with Septoria apii worked out at 74%. For the same molecule, the “Fungicidal efficacy, % control, TEB” value in assay [1] was 100%.
